This note sets out measurements from ChEMBL document CHEMBL4152382, “Discovery of Tarantula Venom-Derived NaV1.7-Inhibitory JzTx-V Peptide 5-Br-Trp24 Analogue AM-6120 with Systemic Block of Histamine-Induced Pruritis” (J Med Chem, 2018).

pIC50: −log10 of the molar value.

Test [1] addresses Sodium channel protein type 4 subunit alpha (Homo sapiens, UniProt P35499). The test is described as follows: Inhibition of human Nav1.4 expressed in HEK293 cells at holding potential of -125 mV […] by patchxpress-based electrophysiology assay. The test is classed as cell-based.
Test [2] concerns the target Sodium channel protein type 9 subunit alpha (Homo sapiens, UniProt Q15858). The test is described as follows: Inhibition of human Nav1.7 expressed in HEK293 cells at holding potential of -125 mV […] by patchxpress-based electrophysiology assay. It is filed as cell-based.

Chain of Sodium channel protein type 9 subunit alpha (Q15858 whole entry): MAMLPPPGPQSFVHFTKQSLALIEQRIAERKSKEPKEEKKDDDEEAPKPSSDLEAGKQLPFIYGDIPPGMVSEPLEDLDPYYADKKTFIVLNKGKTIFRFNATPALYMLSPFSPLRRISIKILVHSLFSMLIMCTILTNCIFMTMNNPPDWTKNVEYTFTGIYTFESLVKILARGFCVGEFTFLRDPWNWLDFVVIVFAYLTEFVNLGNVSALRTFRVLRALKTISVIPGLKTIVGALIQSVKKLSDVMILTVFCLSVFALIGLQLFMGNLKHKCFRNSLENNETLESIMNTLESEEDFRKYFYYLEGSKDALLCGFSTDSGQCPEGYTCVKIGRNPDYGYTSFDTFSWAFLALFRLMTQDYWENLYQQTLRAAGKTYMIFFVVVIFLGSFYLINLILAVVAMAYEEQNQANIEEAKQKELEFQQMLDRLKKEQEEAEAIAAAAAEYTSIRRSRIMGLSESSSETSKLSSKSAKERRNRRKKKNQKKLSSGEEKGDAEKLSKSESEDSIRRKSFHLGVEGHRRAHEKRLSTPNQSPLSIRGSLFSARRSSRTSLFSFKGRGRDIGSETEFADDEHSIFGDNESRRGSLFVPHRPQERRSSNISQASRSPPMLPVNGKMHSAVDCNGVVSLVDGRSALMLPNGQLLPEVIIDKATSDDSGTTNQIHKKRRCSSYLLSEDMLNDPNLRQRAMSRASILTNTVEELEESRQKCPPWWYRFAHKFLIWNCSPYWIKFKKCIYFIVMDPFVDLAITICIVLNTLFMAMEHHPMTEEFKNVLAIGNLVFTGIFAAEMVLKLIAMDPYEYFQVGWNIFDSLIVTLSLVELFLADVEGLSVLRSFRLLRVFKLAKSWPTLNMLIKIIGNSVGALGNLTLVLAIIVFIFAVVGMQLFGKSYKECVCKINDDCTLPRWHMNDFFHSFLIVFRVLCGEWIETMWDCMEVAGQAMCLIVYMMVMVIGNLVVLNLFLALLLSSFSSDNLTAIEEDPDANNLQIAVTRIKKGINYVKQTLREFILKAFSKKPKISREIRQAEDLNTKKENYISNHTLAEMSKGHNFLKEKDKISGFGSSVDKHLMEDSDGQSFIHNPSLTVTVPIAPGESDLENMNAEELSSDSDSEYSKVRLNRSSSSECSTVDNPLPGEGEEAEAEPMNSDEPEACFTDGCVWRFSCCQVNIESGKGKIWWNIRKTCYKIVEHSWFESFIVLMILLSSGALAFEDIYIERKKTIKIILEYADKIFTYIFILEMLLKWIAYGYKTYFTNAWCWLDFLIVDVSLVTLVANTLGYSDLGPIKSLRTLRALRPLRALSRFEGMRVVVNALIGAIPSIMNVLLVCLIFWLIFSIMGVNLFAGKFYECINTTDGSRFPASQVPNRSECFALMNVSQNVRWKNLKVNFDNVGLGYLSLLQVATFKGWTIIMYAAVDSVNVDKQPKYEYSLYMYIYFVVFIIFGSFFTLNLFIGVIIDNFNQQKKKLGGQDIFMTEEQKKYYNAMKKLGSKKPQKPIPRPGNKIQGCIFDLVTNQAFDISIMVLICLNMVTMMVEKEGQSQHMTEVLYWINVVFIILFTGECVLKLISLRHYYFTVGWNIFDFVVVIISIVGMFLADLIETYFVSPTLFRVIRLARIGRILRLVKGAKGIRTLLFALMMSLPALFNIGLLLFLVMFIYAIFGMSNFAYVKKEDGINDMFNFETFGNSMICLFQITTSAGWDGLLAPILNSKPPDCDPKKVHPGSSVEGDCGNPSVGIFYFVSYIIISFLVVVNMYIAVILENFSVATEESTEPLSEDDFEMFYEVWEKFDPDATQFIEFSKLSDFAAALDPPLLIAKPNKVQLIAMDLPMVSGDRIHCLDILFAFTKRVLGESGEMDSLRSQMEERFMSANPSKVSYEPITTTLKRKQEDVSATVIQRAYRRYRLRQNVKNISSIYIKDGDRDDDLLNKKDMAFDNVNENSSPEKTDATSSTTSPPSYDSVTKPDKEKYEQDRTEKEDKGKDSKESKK
Chain of Sodium channel protein type 4 subunit alpha (P35499 whole entry): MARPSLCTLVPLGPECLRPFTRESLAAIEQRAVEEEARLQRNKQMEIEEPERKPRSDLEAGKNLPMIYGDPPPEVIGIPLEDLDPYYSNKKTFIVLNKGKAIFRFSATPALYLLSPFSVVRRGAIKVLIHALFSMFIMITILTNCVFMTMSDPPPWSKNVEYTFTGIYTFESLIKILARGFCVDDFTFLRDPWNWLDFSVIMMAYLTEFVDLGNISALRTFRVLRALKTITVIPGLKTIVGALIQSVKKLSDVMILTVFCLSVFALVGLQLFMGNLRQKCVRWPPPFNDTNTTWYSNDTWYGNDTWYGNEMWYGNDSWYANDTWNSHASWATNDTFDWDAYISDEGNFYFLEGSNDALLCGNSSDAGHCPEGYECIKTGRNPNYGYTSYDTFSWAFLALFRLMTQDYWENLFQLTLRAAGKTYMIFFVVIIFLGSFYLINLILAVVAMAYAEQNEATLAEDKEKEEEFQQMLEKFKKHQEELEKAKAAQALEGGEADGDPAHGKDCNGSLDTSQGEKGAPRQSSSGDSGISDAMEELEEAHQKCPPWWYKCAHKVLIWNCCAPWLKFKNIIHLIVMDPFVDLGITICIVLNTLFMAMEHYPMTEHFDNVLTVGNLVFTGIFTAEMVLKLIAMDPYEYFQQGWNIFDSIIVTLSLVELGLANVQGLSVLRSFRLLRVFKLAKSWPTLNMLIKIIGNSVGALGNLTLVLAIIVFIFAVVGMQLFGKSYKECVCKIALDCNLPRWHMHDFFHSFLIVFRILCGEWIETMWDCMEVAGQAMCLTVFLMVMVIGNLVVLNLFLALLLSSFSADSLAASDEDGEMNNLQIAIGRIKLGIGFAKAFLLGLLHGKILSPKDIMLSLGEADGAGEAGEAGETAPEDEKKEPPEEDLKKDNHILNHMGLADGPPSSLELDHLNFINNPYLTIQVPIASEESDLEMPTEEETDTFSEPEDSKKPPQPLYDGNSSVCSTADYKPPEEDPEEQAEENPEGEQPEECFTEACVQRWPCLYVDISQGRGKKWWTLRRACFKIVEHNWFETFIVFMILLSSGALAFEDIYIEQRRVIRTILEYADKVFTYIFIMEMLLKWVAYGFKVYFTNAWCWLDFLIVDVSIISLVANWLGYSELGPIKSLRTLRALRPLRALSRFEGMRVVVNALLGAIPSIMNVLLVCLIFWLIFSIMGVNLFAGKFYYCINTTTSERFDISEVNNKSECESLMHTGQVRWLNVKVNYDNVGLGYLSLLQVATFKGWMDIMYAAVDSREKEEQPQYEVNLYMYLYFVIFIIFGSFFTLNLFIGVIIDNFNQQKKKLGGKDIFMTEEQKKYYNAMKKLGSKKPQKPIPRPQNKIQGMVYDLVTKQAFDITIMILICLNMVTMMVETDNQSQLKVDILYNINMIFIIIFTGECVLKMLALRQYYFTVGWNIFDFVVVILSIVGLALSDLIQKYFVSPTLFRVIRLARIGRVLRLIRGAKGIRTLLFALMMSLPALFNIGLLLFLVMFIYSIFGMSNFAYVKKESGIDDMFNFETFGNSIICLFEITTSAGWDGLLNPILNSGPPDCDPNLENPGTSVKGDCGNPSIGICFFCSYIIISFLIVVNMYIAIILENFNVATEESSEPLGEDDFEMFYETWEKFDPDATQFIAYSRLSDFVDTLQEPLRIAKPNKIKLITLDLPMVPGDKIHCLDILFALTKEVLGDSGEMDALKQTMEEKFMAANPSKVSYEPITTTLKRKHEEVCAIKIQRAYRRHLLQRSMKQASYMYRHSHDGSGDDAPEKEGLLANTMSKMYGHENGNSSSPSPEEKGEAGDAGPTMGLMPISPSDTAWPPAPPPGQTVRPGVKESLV

For the compound `C#CC[C@H](N)C(=O)N[C@@H](Cc1ccc(O)cc1)C(=O)N[C@H]1CSSC[C@@H]2NC(=O)[C@@H]3CSSC[C@@H](C(=O)N[C@@H](CCCNC(=N)N)C(=O)N[C@@H](CCCCN)C(=O)N[C@@H](CCC(=O)O)C(=O)N[C@@H](CCc4ccccc4)C(N)=O)NC(=O)[C@H](Cc4c[nH]c5ccccc45)NC(=O)[C@H](CC(C)C)NC(=O)[C@H](CCCCN)NC(=O)[C@H](CSSC[C@H](NC(=O)[C@H]([C@@H](C)O)NC(=O)[C@H](Cc4c[nH]c5ccccc45)NC(=O)[C@H](CCCC)NC(=O)[C@H](Cc4c[nH]c5ccccc45)NC(=O)[C@H](CCCCN)NC(=O)[C@H](CCC(N)=O)NC1=O)C(=O)N[C@@H](CC(=O)O)C(=O)N[C@@H](CO)C(=O)N[C@@H](CCCCN)C(=O)N[C@@H](CCCNC(=N)N)C(=O)N[C@@H](C)C(=O)N3)NC(=O)[C@H](CCCNC(=N)N)NC(=O)[C@H](CC(C)C)NC(=O)CNC(=O)[C@H](CCC(=O)O)NC2=O`, the negative logarithm of the IC50 (pIC50) is 7.64 in test [1] and 9.52 in test [2].
Consider `C#CC[C@H](N)C(=O)N[C@@H](Cc1ccc(O)cc1)C(=O)N[C@H]1CSSC[C@@H]2NC(=O)[C@@H]3CSSC[C@@H](C(=O)N[C@@H](CCCNC(=N)N)C(=O)N[C@@H](CCCCN)C(=O)N[C@@H](CCC(=O)O)C(=O)N[C@@H](Cc4c[nH]c5ccccc45)C(N)=O)NC(=O)[C@H](Cc4c[nH]c5ccccc45)NC(=O)[C@H](CC(C)C)NC(=O)[C@H](CCCCN)NC(=O)[C@H](CSSC[C@H](NC(=O)[C@H]([C@@H](C)O)NC(=O)[C@H](Cc4c[nH]c5ccccc45)NC(=O)[C@H](CCCC)NC(=O)[C@H](Cc4c[nH]c5ccccc45)NC(=O)[C@H](CCCCN)NC(=O)[C@H](CCC(N)=O)NC1=O)C(=O)N[C@@H](CC(=O)O)C(=O)N[C@@H](CO)C(=O)N[C@@H](CCCCN)C(=O)N[C@@H](CCCNC(=N)N)C(=O)N[C@@H](C)C(=O)N3)NC(=O)[C@H](CCCNC(=N)N)NC(=O)[C@H](CC(C)C)NC(=O)CNC(=O)[C@H](CCC(=O)O)NC2=O`, for which the results for the pIC50 in test [1] and in test [2] were 7.04 and 9.70, respectively.
In the same order, the values of `C#CC[C@H](N)C(=O)N[C@@H](Cc1ccc(O)cc1)C(=O)N[C@H]1CSSC[C@@H]2NC(=O)[C@@H]3CSSC[C@@H](C(=O)N[C@@H](CCCNC(=N)N)C(=O)N[C@@H](CCCCN)C(=O)N[C@@H](CCC(=O)O)C(=O)N[C@@H](Cc4ccccc4)C(N)=O)NC(=O)[C@H](Cc4c[nH]c5ccccc45)NC(=O)[C@H](CC(C)C)NC(=O)[C@H](CCCCN)NC(=O)[C@H](CSSC[C@H](NC(=O)[C@H]([C@@H](C)O)NC(=O)[C@H](Cc4c[nH]c5ccccc45)NC(=O)[C@H](CCCC)NC(=O)[C@H](Cc4c[nH]c5ccccc45)NC(=O)[C@H](CCCCN)NC(=O)[C@H](CCC(N)=O)NC1=O)C(=O)N[C@@H](CC(=O)O)C(=O)N[C@@H](CO)C(=O)N[C@@H](CCCCN)C(=O)N[C@@H](CCCNC(=N)N)C(=O)N[C@@H](C)C(=O)N3)NC(=O)[C@H](CCCNC(=N)N)NC(=O)[C@H](CC(C)C)NC(=O)CNC(=O)[C@H](CCC(=O)O)NC2=O` are 6.79 and 9.70.
Take `C#CC[C@H](N)C(=O)N[C@@H](Cc1ccc(O)cc1)C(=O)N[C@H]1CSSC[C@@H]2NC(=O)[C@@H]3CSSC[C@@H](C(=O)N[C@@H](CCCNC(=N)N)C(=O)N[C@@H](CCCCN)C(=O)N[C@@H](CCC(=O)O)C(=O)N[C@H](C(N)=O)[C@@H](C)CC)NC(=O)[C@H](Cc4c[nH]c5ccc(Br)cc45)NC(=O)[C@H](CC(C)C)NC(=O)[C@H](CCCCN)NC(=O)[C@H](CSSC[C@H](NC(=O)[C@H]([C@@H](C)O)NC(=O)[C@H](Cc4c[nH]c5ccccc45)NC(=O)[C@H](CCCC)NC(=O)[C@H](CCc4ccccc4)NC(=O)[C@H](CCCCN)NC(=O)[C@H](CCC(N)=O)NC1=O)C(=O)N[C@@H](CC(=O)O)C(=O)N[C@@H](CO)C(=O)N[C@@H](CCCCN)C(=O)N[C@@H](CCCNC(=N)N)C(=O)N[C@@H](C)C(=O)N3)NC(=O)[C@H](CCCNC(=N)N)NC(=O)[C@H](CC(C)C)NC(=O)CNC(=O)[C@H](CCC(=O)O)NC2=O`: the pIC50 in test [2] is 9.00.
On the same count and under the same terms, then `C#CC[C@H](N)C(=O)N[C@@H](Cc1ccc(O)cc1)C(=O)N[C@H]1CSSC[C@@H]2NC(=O)[C@@H]3CSSC[C@@H](C(=O)N[C@@H](CCCNC(=N)N)C(=O)N[C@@H](CCCCN)C(=O)N[C@@H](CCC(=O)O)C(=O)N[C@H](C(N)=O)[C@@H](C)CC)NC(=O)[C@H](Cc4c[nH]c5cc(C)ccc45)NC(=O)[C@H](CC(C)C)NC(=O)[C@H](CCCCN)NC(=O)[C@H](CSSC[C@H](NC(=O)[C@H]([C@@H](C)O)NC(=O)[C@H](Cc4c[nH]c5ccccc45)NC(=O)[C@H](CCCC)NC(=O)[C@H](Cc4c[nH]c5ccccc45)NC(=O)[C@H](CCCCN)NC(=O)[C@H](CCC(N)=O)NC1=O)C(=O)N[C@@H](CC(=O)O)C(=O)N[C@@H](CO)C(=O)N[C@@H](CCCCN)C(=O)N[C@@H](CCCNC(=N)N)C(=O)N[C@@H](C)C(=O)N3)NC(=O)[C@H](CCCNC(=N)N)NC(=O)[C@H](CC(C)C)NC(=O)CNC(=O)[C@H](CCC(=O)O)NC2=O`, with 7.72; and `C#CC[C@H](N)C(=O)N[C@@H](Cc1ccc(O)cc1)C(=O)N[C@H]1CSSC[C@@H]2NC(=O)[C@@H]3CSSC[C@@H](C(=O)N[C@@H](CCCNC(=N)N)C(=O)N[C@@H](CCCCN)C(=O)N[C@@H](CCC(=O)O)C(=O)N[C@H](C(N)=O)[C@@H](C)CC)NC(=O)[C@H](Cc4c[nH]c5ccccc45)NC(=O)[C@H]([C@@H](C)CC)NC(=O)[C@H](CCCCN)NC(=O)[C@H](CSSC[C@H](NC(=O)[C@H]([C@@H](C)O)NC(=O)[C@H](Cc4c[nH]c5ccccc45)NC(=O)[C@H](CCCC)NC(=O)[C@H](Cc4c[nH]c5ccccc45)NC(=O)[C@H](CCCCN)NC(=O)[C@H](CCC(N)=O)NC1=O)C(=O)N[C@@H](CC(=O)O)C(=O)N[C@@H](CO)C(=O)N[C@@H](CCCCN)C(=O)N[C@@H](CCCNC(=N)N)C(=O)N[C@@H](C)C(=O)N3)NC(=O)[C@H](CCCNC(=N)N)NC(=O)[C@H](CC(C)C)NC(=O)CNC(=O)[C@H](CCC(=O)O)NC2=O`, with 8.96.
The same measure, in the same setting: then `C#CC[C@H](N)C(=O)N[C@@H](Cc1ccc(O)cc1)C(=O)N[C@H]1CSSC[C@@H]2NC(=O)[C@@H]3CSSC[C@@H](C(=O)N[C@@H](CCCNC(=N)N)C(=O)N[C@@H](CCCCN)C(=O)N[C@@H](CCC(=O)O)C(=O)N[C@H](C(N)=O)[C@@H](C)CC)NC(=O)[C@H](Cc4c[nH]c5ccc(Br)cc45)NC(=O)[C@H](C4CCCCC4)NC(=O)[C@H](CCCCN)NC(=O)[C@H](CSSC[C@H](NC(=O)[C@H]([C@@H](C)O)NC(=O)[C@H](Cc4c[nH]c5ccccc45)NC(=O)[C@H](CCCC)NC(=O)[C@H](Cc4c[nH]c5ccccc45)NC(=O)[C@H](CCCCN)NC(=O)[C@H](CCC(N)=O)NC1=O)C(=O)N[C@@H](CC(=O)O)C(=O)N[C@@H](CO)C(=O)N[C@@H](CCCCN)C(=O)N[C@@H](CCCNC(=N)N)C(=O)N[C@@H](C)C(=O)N3)NC(=O)[C@H](CCCNC(=N)N)NC(=O)[C@H](CC(C)C)NC(=O)CNC(=O)[C@H](CCC(=O)O)NC2=O`, with 7.71; and `C#CC[C@H](N)C(=O)N[C@@H](Cc1ccc(O)cc1)C(=O)N[C@H]1CSSC[C@@H]2NC(=O)[C@@H]3CSSC[C@@H](C(=O)N[C@@H](CCCNC(=N)N)C(=O)N[C@@H](CCCCN)C(=O)N[C@@H](CCC(=O)O)C(=O)N[C@@H](CC4CCCCC4)C(N)=O)NC(=O)[C@H](Cc4c[nH]c5ccccc45)NC(=O)[C@H](CC(C)C)NC(=O)[C@H](CCCCN)NC(=O)[C@H](CSSC[C@H](NC(=O)[C@H]([C@@H](C)O)NC(=O)[C@H](Cc4c[nH]c5ccccc45)NC(=O)[C@H](CCCC)NC(=O)[C@H](Cc4c[nH]c5ccccc45)NC(=O)[C@H](CCCCN)NC(=O)[C@H](CCC(N)=O)NC1=O)C(=O)N[C@@H](CC(=O)O)C(=O)N[C@@H](CO)C(=O)N[C@@H](CCCCN)C(=O)N[C@@H](CCCNC(=N)N)C(=O)N[C@@H](C)C(=O)N3)NC(=O)[C@H](CCCNC(=N)N)NC(=O)[C@H](CC(C)C)NC(=O)CNC(=O)[C@H](CCC(=O)O)NC2=O`, with 9.22; and `C#CC[C@H](N)C(=O)N[C@@H](Cc1ccc(O)cc1)C(=O)N[C@H]1CSSC[C@@H]2NC(=O)[C@@H]3CSSC[C@@H](C(=O)N[C@@H](CCCNC(=N)N)C(=O)N[C@@H](CCCCN)C(=O)N[C@@H](CCC(=O)O)C(=O)N[C@H](C(N)=O)[C@@H](C)CC)NC(=O)[C@H](Cc4c[nH]c5ccccc45)NC(=O)[C@H](CC(C)C)NC(=O)[C@H](CCCCN)NC(=O)[C@H](CSSC[C@H](NC(=O)[C@H]([C@@H](C)O)NC(=O)[C@H](Cc4c[nH]c5ccccc45)NC(=O)[C@H](CCCC)NC(=O)[C@H](Cc4ccc5ccccc5c4)NC(=O)[C@H](CCCCN)NC(=O)[C@H](CCC(N)=O)NC1=O)C(=O)N[C@@H](CC(=O)O)C(=O)N[C@@H](CO)C(=O)N[C@@H](CCCCN)C(=O)N[C@@H](CCCNC(=N)N)C(=O)N[C@@H](C)C(=O)N3)NC(=O)[C@H](CCCNC(=N)N)NC(=O)[C@H](CC(C)C)NC(=O)CNC(=O)[C@H](CCC(=O)O)NC2=O`, with 7.66.
Still for that read-out and setting: the result for `C#CC[C@H](N)C(=O)N[C@@H](Cc1ccc(O)cc1)C(=O)N[C@H]1CSSC[C@@H]2NC(=O)[C@@H]3CSSC[C@@H](C(=O)N[C@@H](CCCNC(=N)N)C(=O)N[C@@H](CCCCN)C(=O)N[C@@H](CCC(=O)O)C(=O)N[C@H](C(N)=O)[C@@H](C)CC)NC(=O)[C@H](Cc4c[nH]c5ccccc45)NC(=O)[C@H](CC(C)C)NC(=O)[C@H](CCCCN)NC(=O)[C@H](CSSC[C@H](NC(=O)[C@H]([C@@H](C)O)NC(=O)[C@H](CCc4ccccc4)NC(=O)[C@H](CCCC)NC(=O)[C@H](Cc4c[nH]c5ccccc45)NC(=O)[C@H](CCCCN)NC(=O)[C@H](CCC(N)=O)NC1=O)C(=O)N[C@@H](CC(=O)O)C(=O)N[C@@H](CO)C(=O)N[C@@H](CCCCN)C(=O)N[C@@H](CCCNC(=N)N)C(=O)N[C@@H](C)C(=O)N3)NC(=O)[C@H](CCCNC(=N)N)NC(=O)[C@H](CC(C)C)NC(=O)CNC(=O)[C@H](CCC(=O)O)NC2=O` reads 8.17.
